{
  "source": "patent US20230104487A1",
  "about": "“11-(4-CHLOROPHENYL)-4-(2,3-DIHYDRO-1H-INDOLE-1-CARBONYL)-3,11-DIMETHYL-5,10,DIOXATRICYCLO[7.4.0.0,2,6,]TRIDECA-1,3,6,8-TETRAEN-13-ONE AND DERIVATIVES AS DESTABILIZER OF CRY1 FOR THE TREATMENT OF CIRCADIAN RHYTHM ASSOCIATED DISEASES AND DISORDERS” (KOC UNIVERSITESI, priority 2019, published 2023)",
  "key": {"NIH 3T3 Per2-dLuc cells": {"system": "NIH 3T3 Per2-dLuc cells", "assay": "Real-time monitoring of circadian rhythm, NIH 3T3 Per2-dLuc", "format": "cell-based", "details": "dose dependent", "protocol": "Luminescence values were recorded at 32° C. for each 30 minutes with 15 seconds integration time via Synergy H1 luminometer for a week. For LumiCycle, 400×10^3 U2-OS Bmal1-dLuc or NIH3T3 mPer2-dLuc cells were seeded to 35 mm plates and then procedure given above was followed with a change in the last step. Plates were sealed with vacuum grease and placed to LumiCycle. Each plate was recorded continuously every 10 minutes for 70 seconds at 37° C. via photomultiplier tubes. Period and amplitude data were obtained from LumiCycle Analysis software. To detect the effect of FORMULA I in the absence of CRYs, Cry1^−/−/Cry2^−/− mouse embryonic fibroblasts (CRYDKO MEFs) transiently transfected with pGL3-Per2-Luc (luciferase reporter) were used. 3×10^5 CRYDKO cells were seeded in 35 mm clear plates. Next day, cells were transfected with 4000 ng pGL3-Per2-Luc via Fugene6 transfection reagent according to the manufacturer's instruction. In short, 3:1 ratio of Fugene6 in μl against transfected DNA amount in μg was kept in transfections. 72 h after transfection cells were synchronized with DXM for two hours. Then, medium was changed with lumicycle medium having DMSO or molecule, sealed with vacuum grease, and placed to LumiCycle."}, "CRY1": {"biological_target": "T1, CRY1 (Mus musculus, UniProt P97784)", "T1 sequence (P97784 1-606)": "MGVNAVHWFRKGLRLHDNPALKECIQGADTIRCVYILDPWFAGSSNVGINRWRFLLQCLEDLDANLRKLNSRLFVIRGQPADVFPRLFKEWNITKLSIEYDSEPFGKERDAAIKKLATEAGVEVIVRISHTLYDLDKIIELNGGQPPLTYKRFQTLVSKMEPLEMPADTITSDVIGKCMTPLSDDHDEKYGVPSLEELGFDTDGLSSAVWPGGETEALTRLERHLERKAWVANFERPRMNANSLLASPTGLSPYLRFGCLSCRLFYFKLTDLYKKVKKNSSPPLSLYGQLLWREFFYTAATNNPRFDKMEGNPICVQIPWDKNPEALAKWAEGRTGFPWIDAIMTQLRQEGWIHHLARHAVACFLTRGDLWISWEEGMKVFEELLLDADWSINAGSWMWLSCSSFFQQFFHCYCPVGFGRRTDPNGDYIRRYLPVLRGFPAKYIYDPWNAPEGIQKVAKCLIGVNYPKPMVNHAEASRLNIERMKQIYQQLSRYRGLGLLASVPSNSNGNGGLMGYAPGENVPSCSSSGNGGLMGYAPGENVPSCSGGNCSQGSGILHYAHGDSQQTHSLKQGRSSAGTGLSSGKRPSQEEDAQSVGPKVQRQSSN", "assay": "CRY1 level in mouse liver (whole cell lysate, cytosolic and nuclear fraction)", "format": "in vivo", "design": "from tissue; host or cells: liver of C57BL/6J mice", "details": "25 and 50 mg/kg i.p., 6 h", "protocol": "FIGS. 5A-5G are an illustration of FORMULA I decreased the nuclear CRY1 in mice liver. FORMULA I (25 mg/kg or 50 mg/kg) or vehicle intraperitoneally administered to C57BL/6J mice. 6 h after the treated mice were sacrificed (n=3). […] FIGS. 5A-5B show an effect of FORMULA I in WCL. FIG. 5C-5D show an effect of FORMULA I in cytosolic fraction. FIGS. 5E-5F show an effect of FORMULA I in nuclear fraction of muce liver. […] (Data represent the mean±SEM, n=3 (with duplicates in RT-PCR) *: p<0.05 versus control by student t-test).\nCells were lysed in RIPA buffer (50 mM Tris, 150 mM NaCl, 1% Triton-X, 0.1% SDS) with fresh Protease inhibitor cocktail (PIC). After centrifugation at 13000 rpm for 15 minutes at 4° C., supernatant was used to determine the protein amount using Pierce Protein Assay (Thermo Scientific) according to the manufacturer's instruction. Mice liver samples were homogenized and lysed with Dounce homogenizer and RIPA buffer. After homogenization samples were incubated 10 minutes on ice. After centrifugation 13000 rpm 15 minutes at 4° C. supernatant was used for the whole cell lysate. Subcellular fractionation of liver samples: Liver samples were homogenized with cytosolic lysis buffer (10 mM HEPES pH 7.9, 10 mM KCl, 0.1 mM EDTA, 0.05% NP40, proteasome inhibitor) by pipetting 40 times with a cut tip. Then samples were incubated 10 minutes on ice and centrifuged for 3 minutes at 3000 rpm at 4° C. Supernatant was saved in a new tube, and pellet was processed for the nuclear fraction. Supernatant was centrifuged at 13000 rpm for 3 minutes at 4° C. where new supernatant saved as the cytosolic fraction. […] ECL buffer system (Advansta WesternBright) was used to visualize HRP chemi-luminescence via BioRad ChemiDoc Touch visualizer. […]\nSince CRYs are stabilized and degraded differently in cytosolic and nuclear compartments, we further analyzed the level of CRY1 in the cytosolic and nuclear fraction of the mouse liver. […]"}},
  "note": "Entries after “also recorded” stand apart in the source; their conditions may differ.",
  "data": [
    {"smiles": "Cc1c(C(=O)N2CCc3ccccc32)oc2ccc3c(c12)C(=O)CC(C)(c1ccc(Cl)cc1)O3", "note": "(stereo not shown) [FORMULA I, 11-(4-chlorophenyl)-4-(2,3-dihydro-1H-indole-1-carbonyl)-3,11-dimethyl-5,10,dioxatricyclo[7.4.0.0,2,6,]trideca-1,3,6,8-tetraen-13-one]", "values": [
      {"measurement": "effect on circadian rhythm", "setting": "NIH 3T3 Per2-dLuc cells", "result": "exhibited similar phenotype"},
      {"measurement": "CRY1 level in cytosolic fraction of liver", "setting": "CRY1", "result": "not statistically significant compared to controls; also recorded: slightly decreased the CRY1 levels"},
      {"measurement": "CRY1 level in nuclear fraction of liver", "setting": "CRY1", "result": "significantly low compared to controls in dose dependent manner; also recorded: decreased the nuclear CRY1 level significantly; also recorded: selectively decrease CRY1 level in the nucleus"},
      {"measurement": "CRY1 level in whole cell lysate of liver", "setting": "CRY1", "result": "slight decrease in CRY1 levels; also recorded: slightly decreased the CRY1 levels"}
    ]}
  ]
}
